Experimental data from PMC8274595, “Mechanism through Which Retrocyclin Targets Flavivirus Multiplication” (Journal of Virology, 2021).
Like-named read-outs stand apart in the source and are kept apart here. Where no end group is shown, it is not given here.

How the values were obtained:
JEV AT31 [1] = test: Viral titer reduction (plaque) assay, JEV in U251 cells; assay type: cell-based, Japanese encephalitis virus (JEV); details: MOI 0.1, six independent experiments
WT DIII = target: T1, WT DIII (Japanese encephalitis virus, UniProt P27395); test: Binding affinity, biolayer interferometry, WT DIII; parameters: species or system Japanese encephalitis virus (JEV); details: Octet QK, DIII immobilized, RC-101 200, 100, 50 nM, 1:1 binding model
T1 construct: The WT DIII expression vector was constructed using pET-22b(+) and preserved in our laboratory; pET-22b(+) normally gives a C-terminal His6); made in house; host or cells: E. coli BL21(DE3), pET-22b(+)

JEV = assay type: cell-based, Japanese encephalitis virus (JEV); details: 50 μM RC-101, coadministration, BHK-21 cells
JEV NS3 = assay type: cell-based, Japanese encephalitis virus (JEV); details: BHK-21 cells
ZIKV replicon = ZIKV replicon luciferase assay; assay type: cell-based, Zika virus (ZIKV); details: BHK-21 cells, three independent experiments
JEV AT31 [2] = test: Viral titer reduction (plaque) assay, JEV in BHK-21 cells; assay type: cell-based, Japanese encephalitis virus (JEV); details: MOI 0.1, six independent experiments
[3] = tested on: influenza virus hemagglutinin; details: cited from earlier work
JEV H144A variant = assay type: cell-based, Japanese encephalitis virus (JEV); details: coadministration, BHK-21 cells, Western blot and plaque assay
[4] = tested on: herpes simplex virus 1/2 (HSV-1/2) glycoprotein; details: cited from earlier work
JEV N154A variant = assay type: cell-based, Japanese encephalitis virus (JEV); details: coadministration, BHK-21 cells, Western blot and plaque assay
Vero cells = details: up to 100 μM, 72 h, CCK-8 assay
ZIKV MR766 = test: Plaque assay, ZIKV MR766 virus production; assay type: cell-based, Zika virus (ZIKV); details: additional cell line U251 used, supernatant 71 h postinfection
ZIKV NS2B-NS3pro = target: T2, ZIKV NS2B-NS3pro (Zika virus, UniProt A0A024B7W1); test: Proteolytic activity of NS2B-NS3 protease; assay type: biochemical
T2 construct: the NS2B fragments were amplified by PCR; made in house; host or cells: E. coli BL21(DE3), pET28a

DE mutant DIII = target: T3, DE mutant DIII (Japanese encephalitis virus, UniProt P27395, N661A/S658A/S659A/T657A); test: Binding affinity, biolayer interferometry, DE mutant DIII; parameters: species or system Japanese encephalitis virus (JEV); details: relative to WT DIII
T3 construct: DE loop mutant DIII (B), and bovine serum albumin (BSA) (C) were immobilized onto biosensors; pET-22b(+) normally gives a C-terminal His6); made in house

ZIKV = test: Time-of-addition assay, ZIKV (PRVABC 59 and MR766); assay type: cell-based, Zika virus (ZIKV)
MR766 strain = test: Time-of-addition assay, ZIKV MR766 posttreatment; assay type: cell-based, Zika virus (ZIKV); details: Vero cells, RC-101 40 μM added 1 h postinfection for 71 h, MOI 0.1, plaque assay
HIV gp120 = details: cited from earlier work
ZIKV PRVABC 59 = test: Plaque assay, ZIKV PRVABC 59 virus production; assay type: cell-based, Zika virus (ZIKV); details: 100 μM, additional cell line U251 used, supernatant 47 h postinfection
JEV Q258A variant = assay type: cell-based, Japanese encephalitis virus (JEV); details: coadministration, BHK-21 cells, Western blot and plaque assay
DENV-2 = details: cited from earlier work
DENV NS2B-NS3 protease = details: cited from earlier work

Compound: CC[C@H](C)[C@@H]1NC(=O)CNC(=O)[C@H](CCCCN)NC(=O)CNC(=O)[C@@H]2CSSC[C@H](NC1=O)C(=O)N[C@@H](CCCNC(=N)N)C(=O)N[C@H]1CSSC[C@H](NC(=O)[C@H](CCCNC(=N)N)NC(=O)[C@@H]3CSSC[C@H](NC(=O)[C@H]([C@@H](C)CC)NC1=O)C(=O)NCC(=O)N[C@@H](CCCNC(=N)N)C(=O)NCC(=O)N[C@@H]([C@@H](C)CC)C(=O)N3)C(=O)N[C@@H]([C@@H](C)CC)C(=O)N2 [RC-101, retrocyclin-101]
- inhibition of JEV infection (viral titer) (JEV AT31 [1]): robustly inhibited JEV infection
- kinetic dissociation (Kd) (WT DIII): 0.000118 s⁻¹
- prM band (Western blot) (JEV; MOI 0.1, 24 h postinfection): hardly detectable
- viral titers decrease (JEV; plaque assay): approximately 3 log units
- expression of JEV NS3 (JEV NS3; JEV AT31 MOI 0.1, 1 h preinfection RC-101, lysates 23 h postinfection): inhibited in a dose-dependent manner
- unprocessed polyprotein precursor (>180 kDa) expression (JEV NS3; JEV AT31 MOI 0.1, RC-101 3.125 μM versus 0.78125 μM, 23 h postinfection): significantly higher
- unprocessed polyprotein precursor (>180 kDa) presence (JEV NS3; JEV AT31 MOI 0.1, RC-101 0.78125 and 3.125 μM, 23 h postinfection): present
- unprocessed polyprotein precursor (>180 kDa) presence (JEV NS3; JEV AT31 MOI 0.1, RC-101 12.5 and 50 μM, 23 h postinfection): decreased
- initial translation of replicon RNA (luciferase activity) (ZIKV replicon; 2 h postelectroporation): little effect
- luciferase signal (replication) (ZIKV replicon; 48 h postelectroporation): appreciable reduction
- resistance of mutant virus to RC-101 (JEV H319A variant): resistance to RC-101 at the protein level and in the low-multiplication of infection (MOI) assay
- resistance of mutant virus to RC-101 (JEV T410A variant): robust resistance to RC-101 in all assays
- inhibition of JEV infection (viral titer) (JEV AT31 [2]): robustly inhibited JEV infection
- binding affinity to influenza virus hemagglutinin [3]: high binding affinity
- inhibition of infection by mutant virus (JEV H144A variant): inhibited infections
- binding affinity to HSV-1/2 glycoprotein [4]: high binding affinity
- inhibition of infection by mutant virus (JEV N154A variant): inhibited infections
- cytotoxicity (cell viability) (Vero cells): marginal response even at 100 μM
- virus production reduction (ZIKV MR766; 12.5 μM): approximately 1 log unit
- virus production reduction (ZIKV MR766; 100 μM): approximately 7 log units
- IC50 (ZIKV NS2B-NS3pro): 7.2 µM
- decrease of binding affinity, DE mutant versus WT DIII (DE mutant DIII): 1 order of magnitude
- approximate IC98 against ZIKV (ZIKV; IC98 from dose-response against ZIKV (Fig. 1)): ~50 µM
- suppression of viral titers, pretreatment (ZIKV; Vero cells, RC-101 40 μM for 1 h before infection (-1 to 0 h), ZIKV MOI 0.1, plaque assay): no suppression of viral titers was observed
- inhibitory effect, coadministration (ZIKV; Vero cells, RC-101 40 μM with ZIKV MOI 0.1, 0 to 1 h, plaque assay): significant inhibitory effects
- suppression of viral titers, virucidal treatment (ZIKV; ZIKV (MOI 2.5) incubated with RC-101 40 μM at 37°C for 1 h, diluted 25-fold to infect Vero cells 1 h, plaque assay): no suppression of viral titers was observed
- resistance of mutant virus to RC-101 (JEV DE mutant): robust resistance to RC-101 in all assays
- inhibition of infection, posttreatment (MR766 strain): inhibited MR766 strain infection
- binding affinity to HIV gp120 (HIV gp120): high binding affinity
- virus production (plaques) (ZIKV PRVABC 59): few plaques were found
- sensitivity of mutant virus to RC-101 (JEV Q258A variant): likely had increased sensitivity

Compound: GICRCICGRGICRCICGR (also: bicyclic or more (positions not given here)) [RC-1]
- inhibition of DENV-2 replication (DENV-2): inhibit DENV-2 replication
- inhibition of DENV NS2B-NS3 protease (DENV NS2B-NS3 protease): reported to inhibit DENV NS2B-NS3 protease
